Assay results: patent publication US20260258003A1, “SLACK-ACTIVATING COMPOUNDS AND THEIR MEDICAL USE” (Johann Wolfgang Goethe-Universität Frankfurt am Main, priority 2023, published 2026)

Experiments:
human Slack = target: T1, human Slack (Homo sapiens, UniProt Q5JUK3); assay: FluxOR potassium ion channel assay in HEK-Slack cells; type: cell-based; details: Na+ free buffer with 2 mM Ca2+, 2 mM Mg2+, 0.03% DMSO, mean with 95% confidence interval; for EC50: read-out: FluxOR assay EC50; for Emax: read-out: FluxOR assay EMAX (% relative to Loxapine)
T1 construct: host or cells: HEK293
T1 sequence (Q5JUK3 1-1230): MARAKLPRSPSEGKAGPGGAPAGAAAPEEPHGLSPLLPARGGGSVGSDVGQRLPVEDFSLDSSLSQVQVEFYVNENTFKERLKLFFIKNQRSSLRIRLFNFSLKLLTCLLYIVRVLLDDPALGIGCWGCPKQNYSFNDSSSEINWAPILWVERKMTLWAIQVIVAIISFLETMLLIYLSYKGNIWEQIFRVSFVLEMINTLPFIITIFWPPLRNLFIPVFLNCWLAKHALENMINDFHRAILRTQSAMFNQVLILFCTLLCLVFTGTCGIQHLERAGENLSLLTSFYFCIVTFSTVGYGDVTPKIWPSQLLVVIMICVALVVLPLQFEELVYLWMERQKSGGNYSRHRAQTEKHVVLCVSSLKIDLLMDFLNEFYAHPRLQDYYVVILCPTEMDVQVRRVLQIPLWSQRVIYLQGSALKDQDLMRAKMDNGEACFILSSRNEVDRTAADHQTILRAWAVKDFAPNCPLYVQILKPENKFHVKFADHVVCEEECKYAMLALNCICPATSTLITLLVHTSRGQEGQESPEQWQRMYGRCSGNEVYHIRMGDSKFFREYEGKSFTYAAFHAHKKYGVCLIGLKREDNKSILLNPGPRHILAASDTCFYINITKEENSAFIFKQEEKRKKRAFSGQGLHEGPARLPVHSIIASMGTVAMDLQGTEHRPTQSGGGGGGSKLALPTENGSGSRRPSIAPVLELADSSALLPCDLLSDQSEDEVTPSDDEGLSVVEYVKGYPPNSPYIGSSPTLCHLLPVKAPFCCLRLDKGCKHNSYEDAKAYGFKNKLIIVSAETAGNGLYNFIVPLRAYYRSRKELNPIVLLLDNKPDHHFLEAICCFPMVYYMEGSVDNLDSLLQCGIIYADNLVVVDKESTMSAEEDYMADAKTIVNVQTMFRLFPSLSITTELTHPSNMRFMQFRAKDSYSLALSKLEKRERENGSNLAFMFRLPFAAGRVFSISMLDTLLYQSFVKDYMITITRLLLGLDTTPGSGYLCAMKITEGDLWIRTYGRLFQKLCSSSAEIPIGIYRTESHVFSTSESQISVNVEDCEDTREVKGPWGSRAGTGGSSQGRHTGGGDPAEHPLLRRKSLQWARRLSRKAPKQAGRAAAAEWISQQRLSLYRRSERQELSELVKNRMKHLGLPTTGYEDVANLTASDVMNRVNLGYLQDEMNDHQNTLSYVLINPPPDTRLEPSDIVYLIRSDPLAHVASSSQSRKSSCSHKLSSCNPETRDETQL
Experimental: For that purpose, cultured HEK293 cells stably expressing human Slack (herein referred to as HEK-Slack cells) were incubated with compounds in a Na^+ free buffer to prevent compound-independent Slack activation by monovalent cations^7,19.
In detail, in these experiments, the Slack-activating efficacy and potency of the novel compounds was determined using a commercial FluxOR™ Potassium Ion Channel Assay (Invitrogen). HEK293 cells stably expressing human Slack (herein referred to as HEK-Slack cells) were plated at a density of 50,000 cells per well of a poly-D-lysine coated (75 μg/mL, Sigma Aldrich) 96-well, black-walled microplate with clear bottom (Greiner Bio-One) in DMEM containing 10% FBS and 1% penicillin/streptomycin 24 hours prior to assaying.
On the experiment day, cells were loaded with FluxOR™ dye according to the manufacturer's protocol. A Na^+-free assay buffer containing 140 mM choline chloride, 5 mM KCl, 2 mM CaCl2), 2 mM MgSO4, 10 mM HEPES, 5.55 mM glucose, adjusted to pH 7.4 with KOH, was used. To reduce background fluorescence all assay components were complemented by 10% BackDrop™ Background Suppressor (Invitrogen). […]
After washing steps, cells were incubated with compounds for 30 min at 37° C. All compounds were prepared as a 33.3 mM DMSO stock and diluted at the experimental day to a final concentration of 100, 50, 25, 12.5, 6.25, and 3.125 μM in assay buffer containing […] DMSO. […] After stimulation with Tl2SO4 solution, the fluorescence was measured over 100 s (excitation 485 nm, emission 525 nm) using an Infinite M200 Microplate Reader (Tecan). Assays run in triplicate and the ratio to baseline fluorescence was calculated for all time points. Dose-response curves comprising six concentrations were performed in triplets using fluorescence/fluorescenceBaseline ratios at the 100th second.

[1] = tested on: heart rate and breath rate of mice; assay: Pulse oximetry on conscious, freely moving mice; type: in vivo; details: 10 mg/kg i.p., observation period of 30 min
Experimental: Finally, potential side effects of Compound 6 were assessed by measuring cardiovascular functions by pulse oximetry.

[2] = tested on: chloroquine-induced scratching behavior of mice; assay: Chloroquine-induced itch model, topical application of creme; type: in vivo; details: 5% in hydrophilic creme (Basiscreme DAC), topical 30 min prior to s.c. chloroquine
Experimental: Animals: Experiments were performed in 8-16 week-old C57BL/6N mice (Charles River, Sulzfeld, Germany) of either sex. The animals were housed under a 12 h light/dark cycle with access to food and water ad libitum. All experiments adhered to the Animal Research: Reporting on In Vivo Experiments (ARRIVE) guidelines and were approved by and conducted in accordance with the regulations of the local Animal Welfare authorities (Regierungspräsidium Darmstadt, Germany; approval number V54-19c20/15-FR/2011). All behavioral studies were conducted during the light cycle of the day at room temperature (20-24° C.) by an observer blinded for the treatment of the animals.
Drug formulation: A creme formulation of Compound 6 and Compound 21 was prepared by mixing a hydrophilic creme (Basiscreme DAC) with 5% of each Slack activator.
Behavioral assessment: Three to four days before the day of the experiment, the fur on the dorsolateral aspect of the neck was shaved under brief isoflurane anesthesia. On the testing day, Compound 6 creme, Compound 21 creme, or creme vehicle were applied topically on the shaved region of the neck under brief isoflurane anesthesia and the mice were habituated to a Plexiglas cylinder (30 cm in diameter) for 30 min immediately thereafter. […] The number of scratching bouts directed towards the nape of the neck was assessed over 30 min by videotaping.

Row | SMILES | EC50 (human Slack) | Emax (human Slack) | breath rate [1] | heart rate [1] | chloroquine-induced scratching behavior after topical application [2]
1 | O=c1nc(CN2CCN(C3=Nc4cc(F)ccc4Oc4ccc(Cl)cc43)CC2)[nH][nH]1 [Compound 19, 5-((4-(2-Chloro-8-fluorodibenzo[b,f][1,4]oxazepin-11-yl)piperazin-1-yl)methyl)-1,2-dihydro-3H-1,2,4-triazol-3-one] | 21.1 µM | 117% | – | – | –
2 | O=c1nc(CN2CCN(C3=Nc4cc(F)ccc4Oc4ccc(C(F)(F)F)cc43)CC2)[nH][nH]1 [Compound 18, 5-((4-(8-Fluoro-2-(trifluoromethyl)dibenzo[b,f][1,4]oxazepin-11-yl)piperazin-1-yl)methyl)-1,2-dihydro-3H-1,2,4-triazol-3-one] | 11.2 µM | 127% | – | – | –
3 | CN1CC[C@]23c4c5ccc(O)c4O[C@H]2[C@@H](O)C=C[C@H]3[C@H]1C5 [morphine, reference compound] | – | – | significantly reduced | significantly reduced | –
4 | OCCN1CCN(C2=Nc3cc(F)ccc3Oc3ccc(C(F)(F)F)cc32)CC1 [Compound 21, 2-(4-(8-Fluoro-2-(trifluoromethyl)dibenzo[b,f][1,4]oxazepin-11-yl)piperazin-1-yl) ethan-1-ol] | 10.5 µM | 264% | – | – | significantly ameliorated scratching behavior
5 | O=c1nc(CN2CCN(C3=Nc4ccccc4Oc4ccc(C(F)(F)F)cc43)CC2)[nH][nH]1 [Compound 11, 5-((4-(2-(Trifluoromethyl)dibenzo[b,f][1,4]oxazepin-11-yl)piperazin-1-yl)methyl)-1,2-dihydro-3H-1,2,4-triazol-3-one] | 10.7 µM | 199% | – | – | –
6 | O=c1nc(CN2CCCN(C3=Nc4ccccc4Oc4ccc(C(F)(F)F)cc43)CC2)[nH][nH]1 [Compound 20, 5-((4-(2-(Trifluoromethyl)dibenzo[b,f][1,4]oxazepin-11-yl)-1,4-diazepan-1-yl)methyl)-1,2-dihydro-3H-1,2,4-triazol-3-one] | 26.2 µM | 129% | – | – | –
